According to PMC9981942, “Pharmacokinetics and tissue distribution of Ramulus Mori (Sangzhi) alkaloids in rats and its effects on liver enzyme activity” (Frontiers in Pharmacology, 2023):
Where two headings read alike, the source gives them in different places.

What was measured:
rat CYP2C11 = molecular target: T1, rat CYP2C11 (Rattus norvegicus, UniProt P08683); assay: Inhibition of CYP450s in rat liver microsomes, probe mephenytoin; conditions: RLMs; SZ-A 8.899 μg/mL, DNJ 20 μM, FA 5 μM, DAB 8 μM
T1 sequence (P08683 1-500): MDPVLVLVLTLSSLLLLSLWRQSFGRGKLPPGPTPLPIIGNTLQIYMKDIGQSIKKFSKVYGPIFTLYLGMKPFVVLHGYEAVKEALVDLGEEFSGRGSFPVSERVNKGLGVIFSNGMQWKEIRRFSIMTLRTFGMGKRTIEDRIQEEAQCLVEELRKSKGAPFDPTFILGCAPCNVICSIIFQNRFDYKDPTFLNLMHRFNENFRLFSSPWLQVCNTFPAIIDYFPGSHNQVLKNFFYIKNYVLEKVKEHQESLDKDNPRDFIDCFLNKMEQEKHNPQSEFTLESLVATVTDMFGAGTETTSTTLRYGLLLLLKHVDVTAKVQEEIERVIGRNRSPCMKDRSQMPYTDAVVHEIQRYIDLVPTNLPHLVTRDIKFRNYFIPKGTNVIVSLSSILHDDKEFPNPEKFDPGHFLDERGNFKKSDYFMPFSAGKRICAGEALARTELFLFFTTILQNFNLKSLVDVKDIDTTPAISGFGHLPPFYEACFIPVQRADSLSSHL

[1] = Pharmacokinetic study: plasma levels after oral SZ-A in SD rats (LC-MS/MS, DAS 3.2.8); type: in vivo; conditions: for Tmax / AUC(0-inf) / AUC(0-t) / Cmax / half-life / MRT last / MRT inf: both sexes, rat; for Tmax: SD, po; for Tmax / AUC(0-inf) / AUC(0-t) / Cmax / half-life / MRT last / MRT inf / CLz / VRT(0-t) / VRT(0-∞) / Vz: plasma; for AUC(0-inf) / AUC(0-t) / Cmax / half-life / CLz / VRT(0-t) / VRT(0-∞) / Vz: n=8; for MRT last: n=8, read-out: MRT(0-t); for MRT inf: n=8, read-out: MRT(0-∞)
Method: Twenty-four SD rats were fasted for 12 h (free access to water) and randomly classified into three groups (n = 8; half male and female) that received different doses of SZ-A solution (25, 50, and 200 mg/kg) via oral administration. After completion of dose administration, blood samples (0.3 mL) were collected through an indwelling catheter from the jugular vein at predetermined time points (5, 15, 30, and 45 min, 1, 2, 4, 8, and 24 h). The blood was centrifuged at 5,000 rpm for 10 min to separate the plasma. All plasma samples were stored frozen at −80°C until liquid chromatography coupled to tandem mass spectrometry (LC-MS/MS) analysis (AB SCIEX Triple Quad™ 4,500 mass spectrometer, Applied Biosystems Inc., United States).
Primary pharmacokinetic parameters, including Cmax, Tmax, area under the plasma concentration-time curve (AUC), t1/2, clearance rate, and the apparent volume of distribution, were calculated using DAS 3.2.8 (Bio Guider Co., Shanghai, China).

[2] = Identification of metabolites in HLMs/RLMs and rat plasma (Q-Extractive high-resolution MS); type: in vitro ADME, human; conditions: HLMs/RLMs and rat plasma reaction system
Method: Furthermore, 5 μL of the supernatant was collected for LC-MS/MS analysis. The LC-MS/MS conditions were as follows: chromatographic column (XBridge™ Amide, 3.5 µm, 4.6 × 150 mm); mobile phase, water (0.1% ammonia) and acetonitrile, other conditions are the same as those in CYP450s inhibition study, with the following scan parameters: resolution, 70,000; AGC target, 3,000,000; maximum IT, 200 ms; and scan range, 50–600 m/z.

[3] = 25 mg/kg, oral SZ-A 25 mg/kg, n=8, read-out: Tmax
[4] = 50 mg/kg, oral SZ-A 50 mg/kg, n=8, read-out: Tmax
[5] = 200 mg/kg, oral SZ-A 200 mg/kg, n=8, read-out: Tmax
[6] = 200 mg/kg, oral SZ-A 25, 50 and 200 mg/kg, read-out: time to maximum plasma concentration (Tmax), all dose groups

| Structure (SMILES) | effect on rat CYP2C11 (rat CYP2C11) | Tmax [1, 3] | Tmax [1, 4] | Tmax [1, 5] | Tmax [1, 6] | AUC(0-inf) ([1]; oral SZ-A 25 mg/kg) | AUC(0-t) ([1]; oral SZ-A 25 mg/kg) | Cmax ([1]; oral SZ-A 25 mg/kg) | half-life ([1]; oral SZ-A 25 mg/kg) | MRT last ([1]; oral SZ-A 25 mg/kg) | MRT inf ([1]; oral SZ-A 25 mg/kg) | AUC(0-inf) ([1]; oral SZ-A 50 mg/kg) | AUC(0-t) ([1]; oral SZ-A 50 mg/kg) | Cmax ([1]; oral SZ-A 50 mg/kg) | half-life ([1]; oral SZ-A 50 mg/kg) | MRT last ([1]; oral SZ-A 50 mg/kg) | MRT inf ([1]; oral SZ-A 50 mg/kg) | AUC(0-inf) ([1]; oral SZ-A 200 mg/kg) | AUC(0-t) ([1]; oral SZ-A 200 mg/kg) | Cmax ([1]; oral SZ-A 200 mg/kg) | other results |
| --- | --- | --- | --- | --- | --- | --- | --- | --- | --- | --- | --- | --- | --- | --- | --- | --- | --- | --- | --- | --- | --- |
| OC[C@H]1NC[C@@H](O)[C@@H]1O [DAB, 1,4-dideoxy-1,4-imino-D-arabinitol] | mild activation effect | 0.31 ± 0.12 h | 0.44 ± 0.35 h | 0.75 ± 0.3 h | ≤ 0.88 h | 1360 ± 299 ng·h/mL | 1360 ± 299 ng·h/mL | 1050 ± 141 ng/mL | 1.16 ± 0.31 h | 1.26 ± 0.17 h | 1.26 ± 0.17 h | 2660 ± 367 ng·h/mL | 2660 ± 367 ng·h/mL | 1770 ± 632 ng/mL | 1.2 ± 0.03 h | 1.45 ± 0.56 h | 1.45 ± 0.56 h | 7630 ± 2040 ng·h/mL | 7630 ± 2040 ng·h/mL | 3640 ± 1370 ng/mL | half-life ([1]; oral SZ-A 200 mg/kg): 1.08 ± 0.04 h; MRT last ([1]; oral SZ-A 200 mg/kg): 1.6 ± 0.26 h; MRT inf ([1]; oral SZ-A 200 mg/kg): 1.6 ± 0.26 h; CLz ([1]; oral SZ-A 25 mg/kg): 45.3 ± 11 mL/min/kg; VRT(0-t) ([1]; oral SZ-A 25 mg/kg): 1.25±0.51 h^2; VRT(0-∞) ([1]; oral SZ-A 25 mg/kg): 1.25±0.51 h^2; Vz ([1]; oral SZ-A 25 mg/kg): 4.47 ± 1.53 L/kg; CLz ([1]; oral SZ-A 50 mg/kg): 45.2 ± 6.17 mL/min/kg; VRT(0-t) ([1]; oral SZ-A 50 mg/kg): 1.83±2.07 h^2; VRT(0-∞) ([1]; oral SZ-A 50 mg/kg): 1.83±2.07 h^2; Vz ([1]; oral SZ-A 50 mg/kg): 4.70 ± 0.65 L/kg; CLz ([1]; oral SZ-A 200 mg/kg): 65.7 ± 16.7 mL/min/kg; VRT(0-t) ([1]; oral SZ-A 200 mg/kg): 1.92±0.81 h^2; VRT(0-∞) ([1]; oral SZ-A 200 mg/kg): 1.92±0.81 h^2; Vz ([1]; oral SZ-A 200 mg/kg): 6.20 ± 1.82 L/kg; metabolites found [2]: no detectable phase I and phase II metabolites |
| OC[C@H]1NCC[C@@H](O)[C@@H]1O [FA, fagomine] | mild activation effect | 0.5 ± 0.3 h | 0.56 ± 0.37 h | 0.88 ± 0.27 h | ≤ 0.88 h | 1040 ± 356 ng·h/mL | 1040 ± 356 ng·h/mL | 616 ± 168 ng/mL | 1.16 ± 0.31 h | 1.55 ± 0.23 h | 1.55 ± 0.23 h | 2370 ± 634 ng·h/mL | 2370 ± 634 ng·h/mL | 1250 ± 506 ng/mL | 1.19 ± 0.03 h | 1.67 ± 0.61 h | 1.67 ± 0.61 h | 6010 ± 1650 ng·h/mL | 6010 ± 1650 ng·h/mL | 2580 ± 1250 ng/mL | half-life ([1]; oral SZ-A 200 mg/kg): 1.08 ± 0.04 h; MRT last ([1]; oral SZ-A 200 mg/kg): 1.97 ± 0.22 h; MRT inf ([1]; oral SZ-A 200 mg/kg): 1.97 ± 0.22 h; CLz ([1]; oral SZ-A 25 mg/kg): 78.5 ± 24.3 mL/min/kg; VRT(0-t) ([1]; oral SZ-A 25 mg/kg): 1.46±0.55 h^2; VRT(0-∞) ([1]; oral SZ-A 25 mg/kg): 1.46±0.55 h^2; Vz ([1]; oral SZ-A 25 mg/kg): 7.62 ± 2.89 L/kg; CLz ([1]; oral SZ-A 50 mg/kg): 66.7 ± 17.3 mL/min/kg; VRT(0-t) ([1]; oral SZ-A 50 mg/kg): 1.90±2.02 h^2; VRT(0-∞) ([1]; oral SZ-A 50 mg/kg): 1.91±2.02 h^2; Vz ([1]; oral SZ-A 50 mg/kg): 6.88 ± 1.85 L/kg; CLz ([1]; oral SZ-A 200 mg/kg): 105 ± 26.7 mL/min/kg; VRT(0-t) ([1]; oral SZ-A 200 mg/kg): 3.08±0.76 h^2; VRT(0-∞) ([1]; oral SZ-A 200 mg/kg): 3.08±0.76 h^2; Vz ([1]; oral SZ-A 200 mg/kg): 9.94 ± 2.86 L/kg; metabolites found [2]: only trace oxidation products |
| OC[C@H]1NC[C@H](O)[C@@H](O)[C@@H]1O [DNJ, 1-deoxynojirimycin] | mild activation effect | 0.41 ± 0.23 h | 0.63 ± 0.33 h | 0.78 ± 0.25 h | ≤ 0.88 h | 7160 ± 1650 ng·h/mL | 7160 ± 1650 ng·h/mL | 4950 ± 978 ng/mL | 1.02 ± 0.27 h | 1.27 ± 0.2 h | 1.27 ± 0.2 h | 12600 ± 3470 ng·h/mL | 12600 ± 3470 ng·h/mL | 7080 ± 1640 ng/mL | 1.07 ± 0.04 h | 1.51 ± 0.42 h | 1.51 ± 0.42 h | 38500 ± 18000 ng·h/mL | 38300 ± 18000 ng·h/mL | 19400 ± 10800 ng/mL | half-life ([1]; oral SZ-A 200 mg/kg): 3.25 ± 4.2 h; MRT last ([1]; oral SZ-A 200 mg/kg): 1.79 ± 0.3 h; MRT inf ([1]; oral SZ-A 200 mg/kg): 2.02 ± 0.59 h; differences in t1/2 and CLz between the three doses ([1]; oral SZ-A 25, 50, 200 mg/kg): no significant differences; CLz ([1]; oral SZ-A 25 mg/kg): 41.7 ± 11.2 mL/min/kg; VRT(0-t) ([1]; oral SZ-A 25 mg/kg): 1.15±0.57 h^2; VRT(0-∞) ([1]; oral SZ-A 25 mg/kg): 1.15±0.57 h^2; Vz ([1]; oral SZ-A 25 mg/kg): 3.65 ± 1.45 L/kg; CLz ([1]; oral SZ-A 50 mg/kg): 48 ± 12.7 mL/min/kg; VRT(0-t) ([1]; oral SZ-A 50 mg/kg): 2.02±1.71 h^2; VRT(0-∞) ([1]; oral SZ-A 50 mg/kg): 2.02±1.71 h^2; Vz ([1]; oral SZ-A 50 mg/kg): 4.47 ± 1.30 L/kg; CLz ([1]; oral SZ-A 200 mg/kg): 74.5 ± 44.2 mL/min/kg; VRT(0-t) ([1]; oral SZ-A 200 mg/kg): 6.42±4.65 h^2; VRT(0-∞) ([1]; oral SZ-A 200 mg/kg): 16.10±21.66 h^2; Vz ([1]; oral SZ-A 200 mg/kg): 17.77 ± 20.83 L/kg; metabolites found [2]: no detectable phase I and phase II metabolites |
